Assays:
[1] = biological target: PDE4D4 (Homo sapiens, UniProt Q08499); assay: Phosphodiesterase 4 inhibitory activity test (IMAP fluorescence polarization), PDE4D4; format: biochemical; details: Table 1
Description: (§1) Phosphodiesterase 4 inhibitory activity test utilizes IMAP technology, which is called immobilized metal ion affinity-based fluorescence polarization and provide a stable and accurate approach for determining the inhibitory potential of compounds.

[2] = biological target: PDE4D5 (Homo sapiens, UniProt Q08499); assay: Phosphodiesterase 4 inhibitory activity test (IMAP fluorescence polarization), PDE4D5; format: biochemical; details: Table 1
Description: as §1

[3] = system: beagle dogs; assay: Potential vomiting effects (emesis) in beagle dogs; format: in vivo; details: observation 120 minutes
Description: 2. Preliminary assessing the potential vomiting effects of new PDE4 inhibitor III-3
The potential vomiting observation time is 120 minutes after the oral administration. The latency was determined by the interval time from the oral administration of the drugs to the nausea, retching, a lot of salivation and vomiting of gastric contents. The incidence of emesis was also recorded.

[4] = system: mice with scopolamine-induced cognitive deficits; assay: Morris water maze, learning and memory with scopolamine-induced cognitive deficits in mice; format: in vivo, kunming mice; details: administered 1 week, space exploration on fifth day, X ± S
Description: 1. The effects of the new PDE4 inhibitor III-3 on the learning and memory with scopolamine-induced cognitive deficits in mice
After being continuously administered with veh or compounds for 1 week, the behavioral tests are determined by Morris water maze. 20 minutes before test, saline is given into the blank control mice through intraperitoneal injection, while scopolamine is intraperitoneally injected to the other five groups. These mice are continuously trained for 4 days, and the space exploration experiment is performed on the fifth day for recording the latency to target quadrant, the number of crossing and retention time in the target quadrant during the test period of each mice.

[5] = scopolamine + Rolipram 0.5 mg/kg

PDE4D5, sequence (Q08499 1-745 isoform Q08499-6): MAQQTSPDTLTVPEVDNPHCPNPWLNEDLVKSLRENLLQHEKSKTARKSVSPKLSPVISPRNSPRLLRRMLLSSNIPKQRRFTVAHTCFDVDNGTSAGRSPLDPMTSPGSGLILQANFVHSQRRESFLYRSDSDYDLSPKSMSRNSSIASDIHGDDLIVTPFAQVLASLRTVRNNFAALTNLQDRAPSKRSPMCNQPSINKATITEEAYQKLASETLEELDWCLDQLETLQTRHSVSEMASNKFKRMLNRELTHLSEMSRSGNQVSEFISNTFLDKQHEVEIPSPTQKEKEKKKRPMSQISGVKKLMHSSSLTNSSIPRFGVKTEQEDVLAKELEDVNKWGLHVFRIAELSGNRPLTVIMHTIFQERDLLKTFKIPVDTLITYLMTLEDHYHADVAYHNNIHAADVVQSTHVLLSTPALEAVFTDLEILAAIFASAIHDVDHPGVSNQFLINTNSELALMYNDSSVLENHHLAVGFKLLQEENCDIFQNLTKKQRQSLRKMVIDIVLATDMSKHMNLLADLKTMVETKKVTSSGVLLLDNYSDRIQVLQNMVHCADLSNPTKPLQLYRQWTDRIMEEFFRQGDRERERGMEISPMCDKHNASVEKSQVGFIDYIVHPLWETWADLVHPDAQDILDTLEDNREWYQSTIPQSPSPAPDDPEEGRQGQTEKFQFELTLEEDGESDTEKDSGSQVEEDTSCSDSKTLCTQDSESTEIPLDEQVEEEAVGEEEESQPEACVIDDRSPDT
PDE4D4, sequence (Q08499 whole entry): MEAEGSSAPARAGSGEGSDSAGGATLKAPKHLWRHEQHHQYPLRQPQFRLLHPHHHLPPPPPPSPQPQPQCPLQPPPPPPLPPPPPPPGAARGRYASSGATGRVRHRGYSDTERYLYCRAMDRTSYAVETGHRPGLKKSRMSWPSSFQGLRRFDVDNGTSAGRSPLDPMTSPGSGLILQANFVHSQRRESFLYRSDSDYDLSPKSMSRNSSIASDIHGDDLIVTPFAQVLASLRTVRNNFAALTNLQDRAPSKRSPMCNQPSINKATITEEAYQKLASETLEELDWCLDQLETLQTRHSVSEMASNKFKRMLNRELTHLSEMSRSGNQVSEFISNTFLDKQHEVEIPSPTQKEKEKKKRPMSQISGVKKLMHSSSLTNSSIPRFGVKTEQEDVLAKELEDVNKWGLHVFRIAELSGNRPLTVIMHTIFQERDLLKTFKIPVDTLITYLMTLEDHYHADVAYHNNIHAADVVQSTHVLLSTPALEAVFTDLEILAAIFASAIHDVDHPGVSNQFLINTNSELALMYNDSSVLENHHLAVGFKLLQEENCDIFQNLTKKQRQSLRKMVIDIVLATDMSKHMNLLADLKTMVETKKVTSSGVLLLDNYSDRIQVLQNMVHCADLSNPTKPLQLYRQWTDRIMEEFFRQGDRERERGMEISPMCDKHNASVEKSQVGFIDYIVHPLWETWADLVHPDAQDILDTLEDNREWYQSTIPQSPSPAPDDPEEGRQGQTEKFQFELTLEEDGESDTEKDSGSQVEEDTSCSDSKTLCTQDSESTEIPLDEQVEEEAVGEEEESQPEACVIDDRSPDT

Row | SMILES | IC50 [1] [µM] | IC50 [2] [µM] | other results
1 | COc1ccc(CN2CCN(c3ccccc3Cl)CC2)cc1-c1cccc(Cl)c1 [II-2] | 141 | 50.9 | –
2 | COc1ccc(CN2CCN(c3ccccc3OC)CC2)cc1-c1cccc(Cl)c1 [II-1] | 115 | 83.7 | –
3 | COc1ccc(C2CNC(=O)C2)cc1OC1CCCC1 (centres unmarked) [Rolipram, reference compound] | – | – | Incidence of emesis ([3]; 0.5 mg/kg oral gavage): 6/6; Latency period (min) of emesis ([3]; 0.5 mg/kg oral gavage): 10.67 ± 2.68 min; Latency to target quadrant (t/s) [4, 5]: 16.09 ± 3.29 s; Retention time in target quadrant time (t/s) [4, 5]: 38.34 ± 3.65 s; The number of crossing target quadrant [4, 5]: 6.89 ± 0.59

Further lines, with some results ahead:

Row | IC50 [1] [µM] | IC50 [2] [µM] | SMILES | other results
4 | 137 | 110 | COc1ccc(Cn2nc(N3CCN(c4ccccc4Cl)CC3)ccc2=O)cc1-c1cccc(Cl)c1 [III-2] | –
5 | 7.82 | 8.48 | COc1ccccc1OCCNc1ccc(=O)n(Cc2ccc(OC)c(-c3cccc(Cl)c3)c2)n1 [III-3] | Incidence of emesis ([3]; 1.0 mg/kg oral): 0/3; Latency period (min) of emesis ([3]; 1.0 mg/kg oral): >120 min; Latency to target quadrant (t/s) ([4]; scopolamine + III-3 0.2 mg/kg): 9.96 ± 2.32 s; Retention time in target quadrant time (t/s) ([4]; scopolamine + III-3 0.2 mg/kg): 42.78 ± 4.56 s; The number of crossing target quadrant ([4]; scopolamine + III-3 0.2 mg/kg): 6.67 ± 1.29
6 | 22.4 | 8.32 | COc1ccc(Cn2ncc(Cl)c(Cl)c2=O)cc1-c1cccc(Cl)c1 [III-1] | –

— patent US9051273B2, “Phosphodiesterase 4 inhibitor capable of avoiding vomiting” (priority 2012, dated 2015)
